What was measured:
[1] = tested on: orthotopic 4T1-Luc tumors; assay: STL-6014 PDT and metronomic Gemzar in mice bearing 4T1-Luc tumors in the mammary pad (Scheme 1): primary tumor, survival, lung metastases, re-challenge; type: in vivo, Balb/c mice
Experimental: (§1) • (i) Bacteriochlorophyll Derivatives—The Bchl derivatives and RGD-conjugates thereof were provided by Steba Biotech (Rehovot, Israel). […] Concentration was verified by spectrophotometric measurement. STL-7012 was provided as dipotassium salt. Working solution was prepared by dissolving STL-7012 K^+ salt in 5% mannitol solution (1 mg/ml). […] WST11 was supplied as a powder and kept in the dark at −20° C. Stock was prepared by dissolving WST11 in DDW containing 5% glucose and 0.67% mannitol, aliquoted and lyophilized. Working solution was reconstituted with DDW and the concentration of solution was confirmed spectrophotometrically. Alternatively, Clinical WST11 (batch: P00611, and 10-130611) was supplied as lyophilized formulation. Material was dissolved in 5% dextrose, aliquoted and stored at −20° C. At the day of treatment the aliquot was thawed, filtered and the concentration of solution was confirmed spectrophotometrically. • (ii) Chemotherapeutic drugs preparation and storage—Gemcitabine (GEM, Gemzar®, Lilly) was purchased from a local pharmacy as a powder, dissolved in saline to a concentration of 38 mg/ml, aliquoted and stored at −20° C. Aliquots were thawed, diluted with saline to a desired concentration and used on the same day at a dose of 75 mg/kg. Cyclophosphamide (CTX, Endoxan®, Baxter Oncology Gmbh, Germany) was purchased from a local pharmacy. A stock solution of 20 mg/ml was prepared by dissolving in 0.9% NaCl, aliquoted and stored at −20° C. Aliquots were thawed, diluted with saline if needed to a desired concentration and used on the same day prepared at indicated doses. • (iii) Murine cell lines—Mammary luciferase (luc)-labeled 4T1 cell line (4T1-Luc) was a kind gift from Dr. Zvi Granot (Faculty of Medicine, The Hebrew University of Jerusalem, Israel); melanoma B16-F10 cell line was obtained from the American Type Culture Collection (ATCC, Manassas, Va.); bladder MB49 cell line was a kind gift from James Allison (MSKCC, New York, USA), and luc-labeled MB49-cell line was established using the murine stem cell virus (MSCV)-puromycin-luc-GFP construct (kindly provided by Dr. Emily Cheng, Human Oncology and Pathogenesis Program, MSKCC). 4T1 and MB49 cells were maintained in DMEM medium and B16-F10 cells in RPMI medium supplemented with 1 mmol/L sodium pyruvate, 10% fetal calf serum (FCS), 250 μg/ml hygromycin, 0.06 mg/ml penicillin and 0.1 mg/ml streptomycin. The cells were grown as monolayer at 37° C. in a humidified atmosphere (5% CO2, 95% air). • (iv) Murine tumor models—Female, Balb/c mice (6-8 week old) were grafted either subcutaneously (s.c.) into the right hind leg or orthotopically with 1×10^6 4T1 cells suspended in 50 or 1000 PBS. For the rechallenge study, 2×10^5 4T1 cells were orthotopically grafted. For bladder cancer model, 5×10^4 of MB49 or MB49-luciferase cell line were s.c. injected into the right flank of C57B/6 male mice (7-8 weeks old, Taconic, Hudson, N.Y.) 15 days prior to VTP treatment. For the efficacy study of VTP in immune compromised mice, the same number of MB49 cells was injected in the flank of Rag^−/− on C57B/6 background or C57B/6 male mice (7-8 week old, Jackson Laboratory, Bar Harbor, Me.). […] Whole body imaging of luciferase-transfected tumors and metastases were recorded five minutes following 75 mg Kg^−1 intraperitoneal (i.p.) injection of D-luciferin with respective filter sets. • (vi) PDT treatment protocol: 4T1-Luc cells were grafted in the mammary pad of Balb/c mice. […]

[2] = tested on: splenic immune cells of 4T1-bearing mice; assay: FACS profile of splenic immune cell populations in 4T1-bearing mice after STL-6014 PDT and Gemzar; type: in vivo
Experimental: as §1

[3] = tested on: Foxp3+ Treg, CD8+ T cells, G-MDSC/neutrophils; type: in vivo
Experimental: (§2) • (i) Bacteriochlorophyll Derivatives—The Bchl derivatives and RGD-conjugates thereof were provided by Steba Biotech (Rehovot, Israel). […] Concentration was verified by spectrophotometric measurement. STL-7012 was provided as dipotassium salt. Working solution was prepared by dissolving STL-7012 K^+ salt in 5% mannitol solution (1 mg/ml). […] WST11 was supplied as a powder and kept in the dark at −20° C. Stock was prepared by dissolving WST11 in DDW containing 5% glucose and 0.67% mannitol, aliquoted and lyophilized. Working solution was reconstituted with DDW and the concentration of solution was confirmed spectrophotometrically. Alternatively, Clinical WST11 (batch: P00611, and 10-130611) was supplied as lyophilized formulation. Material was dissolved in 5% dextrose, aliquoted and stored at −20° C. […] Aliquots were thawed, diluted with saline to a desired concentration and used on the same day at a dose of 75 mg/kg. Cyclophosphamide (CTX, Endoxan®, Baxter Oncology Gmbh, Germany) was purchased from a local pharmacy. A stock solution of 20 mg/ml was prepared by dissolving in 0.9% NaCl, aliquoted and stored at −20° C. Aliquots were thawed, diluted with saline if needed to a desired concentration and used on the same day prepared at indicated doses. • (iii) Murine cell lines—Mammary luciferase (luc)-labeled 4T1 cell line (4T1-Luc) was a kind gift from Dr. Zvi Granot (Faculty of Medicine, The Hebrew University of Jerusalem, Israel); melanoma B16-F10 cell line was obtained from the American Type Culture Collection (ATCC, Manassas, Va.); bladder MB49 cell line was a kind gift from James Allison (MSKCC, New York, USA), and luc-labeled MB49-cell line was established using the murine stem cell virus (MSCV)-puromycin-luc-GFP construct (kindly provided by Dr. Emily Cheng, Human Oncology and Pathogenesis Program, MSKCC). 4T1 and MB49 cells were maintained in DMEM medium and B16-F10 cells in RPMI medium supplemented with 1 mmol/L sodium pyruvate, 10% fetal calf serum (FCS), 250 μg/ml hygromycin, 0.06 mg/ml penicillin and 0.1 mg/ml streptomycin. The cells were grown as monolayer at 37° C. in a humidified atmosphere (5% CO2, 95% air). • (iv) Murine tumor models—Female, Balb/c mice (6-8 week old) were grafted either subcutaneously (s.c.) into the right hind leg or orthotopically with 1×10^6 4T1 cells suspended in 50 or 1000 PBS. […] Whole body imaging of luciferase-transfected tumors and metastases were recorded five minutes following 75 mg Kg^−1 intraperitoneal (i.p.) injection of D-luciferin with respective filter sets. • (vi) PDT treatment protocol: 4T1-Luc cells were grafted in the mammary pad of Balb/c mice. […] Ablation of primary tumors was assessed every 7 days by imaging the tumor's luciferase-mediated bioluminescence signal, using IVIS.

[4] = tested on: s.c. 4T1-luc breast tumors; assay: WST11 VTP with or without single dose CTX in mice bearing s.c. 4T1-luc tumors in the hind leg (Scheme 4); type: in vivo, Balb/c mice; conditions: CTX 50 or 150 mg/kg alone; WST11 VTP at low light intensity (100 mW/cm^2) alone; or combination
Experimental: as §2

[5] = tested on: orthotopic 4T1-Luc breast tumors; assay: Whole-body NIR fluorescence imaging of accumulation and clearance in 4T1 tumor bearing mice; type: in vivo; conditions: i.v.
Experimental: • (i) Bacteriochlorophyll Derivatives—The Bchl derivatives and RGD-conjugates thereof were provided by Steba Biotech (Rehovot, Israel). […] Concentration was verified by spectrophotometric measurement. STL-7012 was provided as dipotassium salt. Working solution was prepared by dissolving STL-7012 K^+ salt in 5% mannitol solution (1 mg/ml). […] WST11 was supplied as a powder and kept in the dark at −20° C. Stock was prepared by dissolving WST11 in DDW containing 5% glucose and 0.67% mannitol, aliquoted and lyophilized. Working solution was reconstituted with DDW and the concentration of solution was confirmed spectrophotometrically. Alternatively, Clinical WST11 (batch: P00611, and 10-130611) was supplied as lyophilized formulation. Material was dissolved in 5% dextrose, aliquoted and stored at −20° C. […] Aliquots were thawed, diluted with saline to a desired concentration and used on the same day at a dose of 75 mg/kg. […] Whole body imaging of luciferase-transfected tumors and metastases were recorded five minutes following 75 mg Kg^−1 intraperitoneal (i.p.) injection of D-luciferin with respective filter sets. • (vi) PDT treatment protocol: 4T1-Luc cells were grafted in the mammary pad of Balb/c mice. […] Ablation of primary tumors was assessed every 7 days by imaging the tumor's luciferase-mediated bioluminescence signal, using IVIS.

3^1-oxo-15-methoxycarbonylmethyl-Rhodobacteriochlorin 13^1-(2-sulfoethyl)amide-17^3-(cycloRGDfK) amide potassium salt [STL-6014]
survival compared to control (Kaplan-Meier) ([1]; 120 days follow up, monotherapy): did not show any significant survival difference | animals with primary tumor regrowth ([1]; day 30 post treatment): 82% | percentage of G-MDSC/neutrophils and M-MDSC in spleen compared to control ([2]; first week post treatment): significantly reduced | effect on Treg populations in spleen compared with controls ([2]; mouse, in vivo): Much smaller effects

O=P1(N(CCCl)CCCl)NCCCO1 (stereo not shown) [CTX, Cyclophosphamide]
number of cells in the draining lymph nodes and spleens ([3]; low dose CTX three days prior VTP, on the VTP day): reduced | tumor infiltration by regulatory Foxp3+ T cells ([3]; three days after CTX administration): significantly reduces | G-MDSC/neutrophils in the tumor microenvironment ([3]; three days post low dose CTX (VTP day)): reduced | primary tumor growth [4]: unable to suppress primary tumor growth

CC[C@H]1c2cc3[nH]c(c(CC(=O)OC)c4nc(cc5[nH]c(cc(n2)[C@@H]1C)c(C(C)=O)c5C)[C@@H](C)[C@@H]4CCC(=O)O)c(C(=O)NCCS(=O)(=O)[O-])c3C.[K+] [STL-7012, 3^1-oxo-15-methoxycarbonylmethyl-Rhodobacteriochlorin 13^1-(2-sulfoethyl) amide dipotassium salt]
clearance [5]: cleared through the liver within a few hours of injection | accumulation in the tumor (NIR fluorescence) ([5]; STL-6014 7.5 mg/kg, STL-7012 9.5 mg/kg): did not accumulate in the tumor

From US11278555B2, “Combinational therapies for treatment of cancer comprising a bacteriochlorophyll derivative” (Yeda Research and Development Co. Ltd., priority 2016, dated 2022)
